According to the NIST ThermoML archive (doi:10.1016/j.fluid.2015.03.030):

Assay: Boiling temperature at pressure P
Details: Liquid, Ebulliometric method (Recirculating still)

O=C1OC(=O)c2cc(Cl)ccc21 [4-chlorophthalic anhydride]
Details | Boiling temperature at pressure P [°C]
3.412 kPa | 174.12
4.468 kPa | 181.16
5.15 kPa | 184.99
5.626 kPa | 187.38
6.455 kPa | 191.23
7.207 kPa | 194.4
8.268 kPa | 198.19
9.221 kPa | 201.31
10.66 kPa | 205.62
11.74 kPa | 208.48
12.99 kPa | 211.60
14.48 kPa | 214.97
15.93 kPa | 217.97
17.17 kPa | 220.36
18.59 kPa | 222.89
20.24 kPa | 225.72
21.71 kPa | 228.1
23.52 kPa | 230.67
25.37 kPa | 233.31
27.38 kPa | 235.90
29.59 kPa | 238.67
31.99 kPa | 241.41
34.47 kPa | 244.18
37.26 kPa | 247.0
40.2 kPa | 249.76
43.82 kPa | 252.96
46.79 kPa | 255.48
50.5 kPa | 258.40
54.42 kPa | 261.32
58.75 kPa | 264.30
63.31 kPa | 267.29
68.3 kPa | 270.4
72.98 kPa | 273.1
79.29 kPa | 276.50
86.41 kPa | 280.09
92.12 kPa | 282.82
99.1 kPa | 286.02
101 kPa | 287

O=C1OC(=O)c2cc(F)ccc21 [5-fluoro-1,3-isobenzofurandione]
Details | Boiling temperature at pressure P [°C]
3.549 kPa | 153.68
4.301 kPa | 158.39
5.517 kPa | 164.86
6.582 kPa | 169.60
7.86 kPa | 174.33
8.973 kPa | 178.04
10.5 kPa | 182.54
12.25 kPa | 187.07
13.2 kPa | 189.31
15.16 kPa | 193.52
17.63 kPa | 198.20
18.81 kPa | 200.23
21.16 kPa | 204.02
23.05 kPa | 206.79
26 kPa | 210.78
31.21 kPa | 216.91
36.41 kPa | 222.26
40.95 kPa | 226.48
45.02 kPa | 229.90
47.3 kPa | 231.69
48.21 kPa | 232.43
51.3 kPa | 234.71
53.29 kPa | 236.12
55.87 kPa | 237.93
57.3 kPa | 238.87
59.62 kPa | 240.39
65.49 kPa | 244.02
69.16 kPa | 246.14
73.58 kPa | 248.63
78.49 kPa | 251.18
85.68 kPa | 254.76
90.57 kPa | 257.03
93.83 kPa | 258.51
96.02 kPa | 259.49
97.24 kPa | 260.02
101.21 kPa | 261.70
